Measured values reported in the NIST ThermoML archive (doi:10.1016/j.jct.2018.11.014).
Numbers after ± are expanded uncertainties.

Settings: 101.33 kPa, Crystal, Vacuum adiabatic calorimetry

Row | Structure (SMILES) | molar entropy (10 K) | molar entropy (20 K) | molar entropy (30 K) | molar entropy (40 K) | molar entropy (50 K) | molar entropy (60 K) | molar entropy (70 K) | molar entropy (80 K) | molar entropy (90 K) | molar entropy (100 K) | molar entropy (110 K) | molar entropy (120 K) | molar entropy (130 K) | molar entropy (140 K) | molar entropy (150 K) | molar entropy (160 K) | molar entropy (170 K) | molar entropy (180 K) | molar entropy (190 K) | molar entropy (200 K) | other results
1 | O=C(CO)[C@@H](O)[C@@H](O)[C@H](O)CO [D-(-)-tagatose] | 0.24 ± 0.02 J/K/mol | 2.37 ± 0.04 J/K/mol | 6.67 ± 0.12 J/K/mol | 12.43 ± 0.2 J/K/mol | 19.05 ± 0.3 J/K/mol | 26.17 ± 0.4 J/K/mol | 33.58 ± 0.52 J/K/mol | 41.15 ± 0.63 J/K/mol | 48.83 ± 0.78 J/K/mol | 56.57 ± 0.89 J/K/mol | 64.33 ± 1 J/K/mol | 72.1 ± 1.1 J/K/mol | 79.86 ± 1.2 J/K/mol | 87.6 ± 1.4 J/K/mol | 95.33 ± 1.5 J/K/mol | 103.03 ± 1.6 J/K/mol | 110.71 ± 1.7 J/K/mol | 118.38 ± 1.8 J/K/mol | 126.03 ± 1.9 J/K/mol | 133.66 ± 2 J/K/mol | molar entropy (210 K): 141.29 ± 2.1 J/K/mol; molar entropy (220 K): 148.91 ± 2.3 J/K/mol; molar entropy (230 K): 156.53 ± 2.4 J/K/mol; molar entropy (240 K): 164.14 ± 2.5 J/K/mol; molar entropy (250 K): 171.76 ± 2.6 J/K/mol; molar entropy (260 K): 179.37 ± 2.7 J/K/mol; molar entropy (270 K): 187 ± 2.8 J/K/mol; molar entropy (280 K): 194.64 ± 3 J/K/mol; molar entropy (290 K): 202.3 ± 3.1 J/K/mol; molar entropy (298.15 K): 208.54 ± 3.2 J/K/mol; molar entropy (300 K): 209.96 ± 3.2 J/K/mol; molar entropy (310 K): 217.63 ± 3.3 J/K/mol; molar entropy (320 K): 225.31 ± 3.4 J/K/mol; molar entropy (330 K): 232.99 ± 3.5 J/K/mol
2 | O=C(CO)[C@@H](O)[C@H](O)[C@H](O)CO [D-fructose] | 0.22 ± 0.02 J/K/mol | 2.49 ± 0.05 J/K/mol | 7.15 ± 0.12 J/K/mol | 13.3 ± 0.21 J/K/mol | 20.28 ± 0.32 J/K/mol | 27.72 ± 0.43 J/K/mol | 35.42 ± 0.54 J/K/mol | 43.25 ± 0.66 J/K/mol | 51.17 ± 0.81 J/K/mol | 59.14 ± 0.93 J/K/mol | 67.11 ± 1.1 J/K/mol | 75.09 ± 1.2 J/K/mol | 83.05 ± 1.3 J/K/mol | 91 ± 1.4 J/K/mol | 98.92 ± 1.5 J/K/mol | 106.81 ± 1.6 J/K/mol | 114.68 ± 1.8 J/K/mol | 122.52 ± 1.9 J/K/mol | 130.34 ± 2 J/K/mol | 138.14 ± 2.1 J/K/mol | molar entropy (210 K): 145.91 ± 2.2 J/K/mol; molar entropy (220 K): 153.67 ± 2.3 J/K/mol; molar entropy (230 K): 161.42 ± 2.5 J/K/mol; molar entropy (240 K): 169.16 ± 2.6 J/K/mol; molar entropy (250 K): 176.89 ± 2.7 J/K/mol; molar entropy (260 K): 184.62 ± 2.8 J/K/mol; molar entropy (270 K): 192.35 ± 2.9 J/K/mol; molar entropy (280 K): 200.07 ± 3 J/K/mol; molar entropy (290 K): 207.79 ± 3.1 J/K/mol; molar entropy (298.15 K): 214.09 ± 3.2 J/K/mol; molar entropy (300 K): 215.52 ± 3.3 J/K/mol; molar entropy (310 K): 223.26 ± 3.4 J/K/mol; molar entropy (320 K): 231.02 ± 3.5 J/K/mol; molar entropy (330 K): 238.78 ± 3.6 J/K/mol
3 | O=C(CO)[C@H](O)[C@H](O)[C@H](O)CO [D-psicose] | 0.25 ± 0.02 J/K/mol | 2.96 ± 0.05 J/K/mol | 8.19 ± 0.14 J/K/mol | 14.69 ± 0.23 J/K/mol | 21.82 ± 0.34 J/K/mol | 29.28 ± 0.45 J/K/mol | 36.93 ± 0.57 J/K/mol | 44.67 ± 0.68 J/K/mol | 52.46 ± 0.83 J/K/mol | 60.26 ± 0.95 J/K/mol | 68.06 ± 1.1 J/K/mol | 75.83 ± 1.2 J/K/mol | 83.57 ± 1.3 J/K/mol | 91.28 ± 1.4 J/K/mol | 98.95 ± 1.5 J/K/mol | 106.58 ± 1.6 J/K/mol | 114.19 ± 1.8 J/K/mol | 121.76 ± 1.9 J/K/mol | 129.31 ± 2 J/K/mol | 136.83 ± 2.1 J/K/mol | molar entropy (210 K): 144.33 ± 2.2 J/K/mol; molar entropy (220 K): 151.81 ± 2.3 J/K/mol; molar entropy (230 K): 159.28 ± 2.4 J/K/mol; molar entropy (240 K): 166.73 ± 2.5 J/K/mol; molar entropy (250 K): 174.17 ± 2.6 J/K/mol; molar entropy (260 K): 181.61 ± 2.8 J/K/mol; molar entropy (270 K): 189.03 ± 2.9 J/K/mol; molar entropy (280 K): 196.45 ± 3 J/K/mol; molar entropy (290 K): 203.86 ± 3.1 J/K/mol; molar entropy (298.15 K): 209.9 ± 3.2 J/K/mol; molar entropy (300 K): 211.27 ± 3.2 J/K/mol; molar entropy (310 K): 218.67 ± 3.3 J/K/mol; molar entropy (320 K): 226.07 ± 3.4 J/K/mol; molar entropy (330 K): 233.48 ± 3.5 J/K/mol
